Tests used:
Experiment in all cases: viability relative to DMSO control (fraction); higher = less drug effect (more viable cells)
Details in all cases: 48 h
[1] = tested on: primary AML patient cells (S012)
Summary of the method: (§1)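 In 384-well plates with compounds pre-plated at five concentrations (one well per concentration), primary mononuclear tumour cells were plated at 4 × 10^4 cells per well. The cells came from blood or bone marrow by Ficoll isolation or from processed lymph node, and were used fresh or cryopreserved. Culture ran for 48 h at 37 °C and 5% CO2 in RPMI-1640 containing penicillin/streptomycin, L-glutamine and human serum. Viability was read as CellTiter-Glo luminescence, normalised to the median of 16 inner DMSO wells.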

[2] = tested on: primary AML patient cells (S037)
Summary of the method: as §1

[3] = tested on: primary AML patient cells (S019)
Summary of the method: as §1

[4] = tested on: primary AML patient cells (S081)
Summary of the method: as §1

[5] = tested on: primary AML patient cells (S027)
Summary of the method: as §1

[6] = tested on: primary AML patient cells (S007)
Summary of the method: as §1

[7] = tested on: primary AML patient cells (S089)
Summary of the method: as §1

[8] = tested on: primary AML patient cells (S011)
Summary of the method: as §1

[9] = tested on: primary AML patient cells (S017)
Summary of the method: as §1

[10] = tested on: primary AML patient cells (S021)
Summary of the method: as §1

[11] = tested on: primary AML patient cells (S002)
Summary of the method: as §1

[12] = tested on: primary AML patient cells (S085)
Summary of the method: as §1

[13] = tested on: primary CLL patient cells (S043)
Summary of the method: as §1

[14] = tested on: primary AML patient cells (S025)
Summary of the method: as §1

[15] = tested on: primary AML patient cells (S091)
Summary of the method: as §1

## CCc1cnn2c(NCc3ccc[n+]([O-])c3)cc(N3CCCC[C@H]3CCO)nc12 [Dinaciclib]
[1]; 0.0016 µM
  viability: 1.1
[1]; 0.008 µM
  viability: 0.473
[1]; 0.04 µM
  viability: 0.0686
[1]; 0.2 µM
  viability: 0.0607
[1]; 1 µM
  viability: 0.0676
[2]; 0.0016 µM
  viability: 1.04
[2]; 0.008 µM
  viability: 0.903
[2]; 0.04 µM
  viability: 0.39
[2]; 0.2 µM
  viability: 0.38
[2]; 1 µM
  viability: 0.374
[3]; 0.0016 µM
  viability: 1.31
[3]; 0.008 µM
  viability: 0.54
[3]; 0.04 µM
  viability: 0.114
[3]; 0.2 µM
  viability: 0.116
[3]; 1 µM
  viability: 0.126
[4]; 0.0016 µM
  viability: 1.02
[4]; 0.008 µM
  viability: 0.0549
[4]; 0.04 µM
  viability: 0.0232
[4]; 0.2 µM
  viability: 0.0223
[4]; 1 µM
  viability: 0.0211
[5]; 0.0016 µM
  viability: 1.05
[5]; 0.008 µM
  viability: 0.12
[5]; 0.04 µM
  viability: 0.0422
[5]; 0.2 µM
  viability: 0.0393
[5]; 1 µM
  viability: 0.0395
[6]; 0.0016 µM
  viability: 0.637
[6]; 0.008 µM
  viability: 0.175
[6]; 0.04 µM
  viability: 0.118
[6]; 0.2 µM
  viability: 0.12
[6]; 1 µM
  viability: 0.141
[7]; 0.0016 µM
  viability: 0.929
[7]; 0.008 µM
  viability: 0.0524
[7]; 0.04 µM
  viability: 0.0434
[7]; 0.2 µM
  viability: 0.0447
[7]; 1 µM
  viability: 0.0498
[8]; 0.0016 µM
  viability: 1.23
[8]; 0.008 µM
  viability: 0.155
[8]; 0.04 µM
  viability: 0.0402
[8]; 0.2 µM
  viability: 0.0329
[8]; 1 µM
  viability: 0.0263
[9]; 0.0016 µM
  viability: 0.994
[9]; 0.008 µM
  viability: 0.401
[9]; 0.04 µM
  viability: 0.0509
[9]; 0.2 µM
  viability: 0.0474
[9]; 1 µM
  viability: 0.0503
[10]; 0.0016 µM
  viability: 1.38
[10]; 0.008 µM
  viability: 0.424
[10]; 0.04 µM
  viability: 0.161
[10]; 0.2 µM
  viability: 0.151
[10]; 1 µM
  viability: 0.139
[11]; 0.0016 µM
  viability: 1.17
[11]; 0.008 µM
  viability: 0.272
[11]; 0.04 µM
  viability: 0.277
[11]; 0.2 µM
  viability: 0.265
[11]; 1 µM
  viability: 0.274
[12]; 0.0016 µM
  viability: 1
[12]; 0.008 µM
  viability: 0.11
[12]; 0.04 µM
  viability: 0.0634
[12]; 0.2 µM
  viability: 0.0552
[12]; 1 µM
  viability: 0.0573
[13]; 0.0016 µM
  viability: 1.08
[13]; 0.008 µM
  viability: 0.0742
[13]; 0.04 µM
  viability: 0.0345
[13]; 0.2 µM
  viability: 0.0401
[13]; 1 µM
  viability: 0.0459
[14]; 0.0016 µM
  viability: 0.976
[14]; 0.008 µM
  viability: 0.286
[14]; 0.04 µM
  viability: 0.063
[14]; 0.2 µM
  viability: 0.0602
[14]; 1 µM
  viability: 0.0589
[15]; 0.0016 µM
  viability: 1.07
[15]; 0.008 µM
  viability: 0.171
[15]; 0.04 µM
  viability: 0.0777
[15]; 0.2 µM
  viability: 0.076
[15]; 1 µM
  viability: 0.0799

## CN1CC[C@H](c2c(O)cc(O)c3c(=O)cc(-c4ccccc4Cl)oc23)[C@H](O)C1 [Flavopiridol]
[1]; 0.0032 µM
  viability: 0.979
[1]; 0.016 µM
  viability: 0.904
[1]; 0.08 µM
  viability: 0.869
[1]; 0.4 µM
  viability: 0.151
[1]; 2 µM
  viability: 0.0418
[2]; 0.0032 µM
  viability: 0.979
[2]; 0.016 µM
  viability: 0.948
[2]; 0.08 µM
  viability: 0.914
[2]; 0.4 µM
  viability: 0.633
[2]; 2 µM
  viability: 0.328
[3]; 0.0032 µM
  viability: 1.08
[3]; 0.016 µM
  viability: 0.769
[3]; 0.08 µM
  viability: 0.961
[3]; 0.4 µM
  viability: 0.198
[3]; 2 µM
  viability: 0.0784
[4]; 0.0032 µM
  viability: 1.01
[4]; 0.016 µM
  viability: 0.873
[4]; 0.08 µM
  viability: 0.766
[4]; 0.4 µM
  viability: 0.0954
[4]; 2 µM
  viability: 0.0215
[5]; 0.0032 µM
  viability: 1.04
[5]; 0.016 µM
  viability: 0.947
[5]; 0.08 µM
  viability: 0.842
[5]; 0.4 µM
  viability: 0.0906
[5]; 2 µM
  viability: 0.0365
[6]; 0.0032 µM
  viability: 0.945
[6]; 0.016 µM
  viability: 0.68
[6]; 0.08 µM
  viability: 0.624
[6]; 0.4 µM
  viability: 0.127
[6]; 2 µM
  viability: 0.0782
[7]; 0.0032 µM
  viability: 0.742
[7]; 0.016 µM
  viability: 1.01
[7]; 0.08 µM
  viability: 0.362
[7]; 0.4 µM
  viability: 0.0371
[7]; 2 µM
  viability: 0.0437
[8]; 0.0032 µM
  viability: 0.859
[8]; 0.016 µM
  viability: 0.754
[8]; 0.08 µM
  viability: 0.715
[8]; 0.4 µM
  viability: 0.0633
[8]; 2 µM
  viability: 0.0225
[9]; 0.0032 µM
  viability: 1
[9]; 0.016 µM
  viability: 0.986
[9]; 0.08 µM
  viability: 0.96
[9]; 0.4 µM
  viability: 0.18
[9]; 2 µM
  viability: 0.0397
[10]; 0.0032 µM
  viability: 0.974
[10]; 0.016 µM
  viability: 0.852
[10]; 0.08 µM
  viability: 0.676
[10]; 0.4 µM
  viability: 0.292
[10]; 2 µM
  viability: 0.124
[11]; 0.0032 µM
  viability: 1.02
[11]; 0.016 µM
  viability: 0.927
[11]; 0.08 µM
  viability: 0.69
[11]; 0.4 µM
  viability: 0.241
[11]; 2 µM
  viability: 0.244
[12]; 0.0032 µM
  viability: 0.86
[12]; 0.016 µM
  viability: 0.858
[12]; 0.08 µM
  viability: 0.651
[12]; 0.4 µM
  viability: 0.0968
[12]; 2 µM
  viability: 0.0387
[13]; 0.0032 µM
  viability: 0.933
[13]; 0.016 µM
  viability: 1.02
[13]; 0.08 µM
  viability: 0.912
[13]; 0.4 µM
  viability: 0.265
[13]; 2 µM
  viability: 0.0335
[14]; 0.0032 µM
  viability: 0.958
[14]; 0.016 µM
  viability: 0.861
[14]; 0.08 µM
  viability: 0.691
[14]; 0.4 µM
  viability: 0.13
[14]; 2 µM
  viability: 0.0473
[15]; 0.0032 µM
  viability: 0.917
[15]; 0.016 µM
  viability: 0.921
[15]; 0.08 µM
  viability: 0.604
[15]; 0.4 µM
  viability: 0.113
[15]; 2 µM
  viability: 0.0958

Source: the supplement of paper PMC10733146
